Our source for the pest or weed control values is US7754741B2, “Pyridine derivatives as fungicidal compounds” (Bayer Cropscience S.A., priority 2003, dated 2010).

One assay relates to Alternaria brassicae. Put plainly: In vivo test on Alternaria brassicae (leaf spot of crucifers). To be noted: Alternaria brassicae; dose 330 ppm; radish plants sprayed 24 hours before contamination; grading 6 to 7 days after contamination vs control plants; read-out: protection (good (at least 50%) to total). As to the method: In Vivo Test on Alternaria brassicae (Leaf Spot of crucifers)
(§1) The active ingredient tested is prepared by potter homogenisation in a concentrated suspension type formulation at 100 g/l. This suspension is then diluted with water to obtain the desired active material concentration.
Radish plants (Pernot variety) in starter cups, sown on a 50/50 peat soil-pozzolana substrate and grown at 18-20° C., are treated at the cotyledon stage by spraying with the aqueous suspension described above.
(§2) Plants, used as controls, are treated with an aqueous solution not containing the active material.
After 24 hours, the plants are contaminated by spraying them with an aqueous suspension of Alternaria brassicae spores (40,000 spores per cm^3). The spores are collected from a 12-13-day-old culture.
The contaminated radish plants are incubated for 6-7 days at about 18° C., under a humid atmosphere.
Grading is carried out 6 to 7 days after the contamination, in comparison with the control plants.

In assay [1] the test system is Erysiphe graminis f. sp. tritici. Put plainly: In vivo test on Erysiphe graminis f. sp. tritici (wheat powdery mildew). To be noted: Blumeria graminis, wheat plants sprayed 24 hours before contamination, grading 7 to 14 days after contamination vs control plants, read-out: protection (good (at least 50%) to total). As to the method:
In Vivo Test on Erysiphe graminis f. sp. tritici (Wheat Powdery Mildew)
as §1
Wheat plants (Audace variety) in starter cups, sown on 50/50 peat soil-pozzolana substrate and grown at 12° C., are treated at the 1-leaf stage (10 cm tall) by spraying with the aqueous suspension described above.
as §2
After 24 hours, the plants are contaminated by dusting them with Erysiphe graminis f. sp. tritici spores, the dusting being carried out using diseased plants. Grading is carried out 7 to 14 days after the contamination, in comparison with the control plants.
Under these conditions, good (at least 50%) to total protection is observed at a dose of 330 ppm with the following compounds: A-4, B-4, B-8, C-2, C-3, C-12, D-4, F-1, H-1, H-2, H-4, H-20, I-3, J-1, J-2, J-3, J-19, J-20, J-31, J-37, J-40, J-55, J-57, J-58, J-59, J-61, K-1, M-5, M-6, R-1, R-10, R-26, R-29, V-7.

The next assay concerns Pyrenophora teres. Put plainly: In vivo test on Pyrenophora teres (barley net blotch). Conditions: Pyrenophora teres, 288 h; dose 330 ppm; barley plants sprayed 24 hours before contamination; grading 12 days after contamination vs control plants; read-out: protection (good (at least 50%) to total). As to the method:
In Vivo Test on Pyrenophora teres (Barley Net Blotch)
as §1
Barley plants (Express variety) in starter cups, sown on a 50/50 peat soil-pozzolana substrate and grown at 12° C., are treated at the 1-leaf stage (10 cm tall) by spraying with the aqueous suspension described above. Plants, used as controls, are treated with an aqueous solution not containing the active material.
After 24 hours, the plants are contaminated by spraying them with an aqueous suspension of Pyrenophora teres spores (12,000 spores per ml). The spores are collected from a 12-day-old culture The contaminated barley plants are incubated for 24 hours at about 20° C. and at 100% relative humidity, and then for 12 days at 80% relative humidity.

In a further assay the test system is Botrytis cinerea. Put plainly: In vivo test on Botrytis cinerea (cucumber grey mould). To be noted: Botrytis cinerea; dose 330 ppm; cucumber plants sprayed 24 hours before contamination; grading 5/7 days after contamination vs control plants; read-out: protection (good (at least 50%) to total). As for the experimental part: In Vivo Test on Botrytis cinerea (Cucumber Grey Mould)
as §1
Cucumber plants (Marketer variety) in starter cups, sown on a 50/50 peat soil-pozzolana substrate and grown at 18-20° C., are treated at the cotyledon Z11 stage by spraying with the aqueous suspension described above. Plants, used as controls, are treated with an aqueous solution not containing the active material.
After 24 hours, the plants are contaminated by depositing drops of an aqueous suspension of Botrytis cinerea spores (150,000 spores per ml) on upper surface of the leaves. The spores are collected from a 15-day-old culture and are suspended in a nutrient solution composed of: • 20 g/L of gelatin • 50 g/L of cane sugar • 2 g/L of NH4NO3 • 1 g/L of KH2PO4
The contaminated cucumber plants are settled for 5/7 days in a climatic room at 15-11° C. (day/night) and at 80% relative humidity.
Grading is carried out 5/7 days after the contamination, in comparison with the control plants. Under these conditions, good (at least 50%) to total protection is observed at a dose of 330 ppm with the following compounds :B-7, B-8, B-13, B-14, C-3, C-12, C-13, C-14, C-15, C-16, D-4, D-5, E-4, H-1, H-2, H-4, H-7, H-9, H-22, J-1, J-2, J-3, J-19, J-31, J-32, J-33, J-34, J-35, J-37, J-39, J-43, J-44, R-1, R-10, R-23, R-24, R-26, R-31, V-1, V-8.

As for `O=C(NCCc1ncc(C(F)(F)F)cc1Cl)c1occc1Br` [Compound A-4], the pest or weed control at 330 ppm (with Alternaria brassicae; in assay [1]; with Pyrenophora teres) was ≥ 50% throughout.
Take `Cc1oc(C(C)(C)C)cc1C(=O)NCCc1ncc(C(F)(F)F)cc1Cl` [Compound B-4]: the pest or weed control at 330 ppm (in the assay on Alternaria brassicae; in assay [1]) was ≥ 50% each time.
Consider `Cc1cc(C(=O)NCCc2ncc(C(F)(F)F)cc2Cl)c(C)o1` [Compound B-7], for which the pest or weed control at 330 ppm with Alternaria brassicae, with Botrytis cinerea and in the assay with Pyrenophora teres was ≥ 50% in each case.
With `Cc1cc(C(=O)NCCc2ncc(C(F)(F)F)cc2Cl)c(C(F)(F)F)o1` [Compound B-8], the pest or weed control at 330 ppm (in the assay on Alternaria brassicae; in assay [1]; in the assay with Botrytis cinerea; with Pyrenophora teres) was ≥ 50% throughout.
With `Cc1occc1C(=O)NCCc1ncc(Cl)cc1Cl` [Compound B-13], the pest or weed control at 330 ppm with Alternaria brassicae, in the assay on Botrytis cinerea and in the assay on Pyrenophora teres was ≥ 50% throughout.
As to `O=C(NCCc1ncc(C(F)(F)F)cc1Cl)c1ccoc1I` [Compound B-14], the pest or weed control at 330 ppm with Alternaria brassicae, in the assay with Botrytis cinerea and in the assay on Pyrenophora teres was ≥ 50% in each case.
Consider `O=C(NCCc1ncc(C(F)(F)F)cc1Cl)c1sccc1Cl` [Compound C-2], for which the pest or weed control at 330 ppm (in the assay on Alternaria brassicae; in assay [1]) was ≥ 50% throughout.
In the case of `Cc1ccsc1C(=O)NCCc1ncc(C(F)(F)F)cc1Cl` [Compound C-3], the pest or weed control at 330 ppm (in the assay on Alternaria brassicae; in assay [1]; in the assay on Botrytis cinerea; in the assay with Pyrenophora teres) was ≥ 50% in each case.
Regarding `O=C(NCCc1ncc(C(F)(F)F)cc1Cl)c1sccc1I` [Compound C-12], the pest or weed control at 330 ppm (with Alternaria brassicae; in assay [1]; with Botrytis cinerea; in the assay on Pyrenophora teres) was ≥ 50% each time.
As to `O=C(NCCc1ncc(Cl)cc1Cl)c1sccc1I` [Compound C-13], the pest or weed control at 330 ppm with Alternaria brassicae, with Botrytis cinerea and with Pyrenophora teres was ≥ 50% throughout.
For the molecule `O=C(NCCc1ncc(Cl)cc1F)c1sccc1I` [Compound C-15], the pest or weed control at 330 ppm in the assay with Botrytis cinerea and in the assay with Pyrenophora teres was ≥ 50% each time.
In the case of `O=C(NCCc1ncc(Cl)cc1Br)c1sccc1I` [Compound C-16], the pest or weed control at 330 ppm in the assay on Alternaria brassicae, in the assay with Botrytis cinerea and in the assay on Pyrenophora teres was ≥ 50% in each case.
In the case of `O=C(NCCc1ncc(C(F)(F)F)cc1Cl)c1ccsc1I` [Compound D-4], the pest or weed control at 330 ppm (in the assay with Alternaria brassicae; in assay [1]; in the assay on Botrytis cinerea; in the assay with Pyrenophora teres) was ≥ 50% each time.
As to `Cc1cscc1C(=O)NCCc1ncc(C(F)(F)F)cc1Cl` [Compound D-5], the pest or weed control at 330 ppm in the assay on Alternaria brassicae, in the assay with Botrytis cinerea and with Pyrenophora teres was ≥ 50% throughout.
Take `Cn1cccc1C(=O)NCCc1ncc(C(F)(F)F)cc1Cl` [Compound F-1]: the pest or weed control at 330 ppm in assay [1] is ≥ 50%.
For `CC1=[SH]C(C(=O)NCCc2ncc(Cl)cc2Cl)=C(C(F)(F)F)N1` [Compound H-4], the pest or weed control at 330 ppm (in the assay on Alternaria brassicae; in assay [1]; in the assay with Botrytis cinerea; with Pyrenophora teres) was ≥ 50% each time.
Take `Cn1nc(C(=O)NCCc2ncc(C(F)(F)F)cc2Cl)c(Br)c1[N+](=O)[O-]` [Compound I-3]: the pest or weed control at 330 ppm (in the assay on Alternaria brassicae; in assay [1]; in the assay on Pyrenophora teres) was ≥ 50% in each case.
With `Cc1nn(C)c(F)c1C(=O)NCCc1ncc(C(F)(F)F)cc1Cl` [Compound J-1], the pest or weed control at 330 ppm (with Alternaria brassicae; in assay [1]; in the assay on Botrytis cinerea; with Pyrenophora teres) was ≥ 50% each time.
For the molecule `Cc1nn(C)cc1C(=O)NCCc1ncc(C(F)(F)F)cc1Cl` [Compound J-2], the pest or weed control at 330 ppm (in the assay on Alternaria brassicae; in assay [1]; with Botrytis cinerea; in the assay with Pyrenophora teres) was ≥ 50% throughout.
Take `Cn1cc(C(=O)NCCc2nc(Cl)c(Cl)cc2Cl)c(C(F)(F)F)n1` [Compound J-20]: the pest or weed control at 330 ppm (in assay [1]; with Pyrenophora teres) was ≥ 50% throughout.
On to `Cc1cc(Br)cnc1CCNC(=O)c1cn(C)nc1C(F)F` [Compound J-32], for which the pest or weed control at 330 ppm in the assay on Alternaria brassicae, in the assay on Botrytis cinerea and in the assay with Pyrenophora teres was ≥ 50% in each case.
For the molecule `Cn1cc(C(=O)NCCc2ncc(Cl)cc2F)c(C(F)F)n1` [Compound J-33], the pest or weed control at 330 ppm in the assay with Alternaria brassicae, in the assay with Botrytis cinerea and in the assay on Pyrenophora teres was ≥ 50% in each case.
As for `Cn1cc(C(=O)NCCc2nc(Cl)c(Cl)cc2Cl)c(C(F)F)n1` [Compound J-34], the pest or weed control at 330 ppm in the assay with Botrytis cinerea and in the assay with Pyrenophora teres was ≥ 50% each time.
Turning to `Cn1cc(C(=O)NCCc2ncc(Cl)cc2Br)c(C(F)F)n1` [Compound J-39], the pest or weed control at 330 ppm with Alternaria brassicae, in the assay on Botrytis cinerea and in the assay on Pyrenophora teres was ≥ 50% in each case.
In the case of `Cc1c(F)c(F)nc(CCNC(=O)c2cn(C)nc2C(F)F)c1F` [Compound J-40], the pest or weed control at 330 ppm (in assay [1]; in the assay on Pyrenophora teres) was ≥ 50% in each case.
For `Cn1cc(C(=O)NCCc2ncc(C(F)(F)F)cc2Cl)c(Cl)n1` [Compound J-57], the pest or weed control at 330 ppm (in assay [1]; in the assay on Pyrenophora teres) was ≥ 50% each time.
On to `Cn1cc(C(=O)NCCc2ncc(C(F)(F)F)cc2Cl)c(I)n1` [Compound J-58], for which the pest or weed control at 330 ppm (in assay [1]; in the assay with Pyrenophora teres) was ≥ 50% throughout.
`Cc1cc(C(=O)NCCc2ncc(C(F)(F)F)cc2Cl)n(C(C)(C)C)n1` [Compound K-1]: the pest or weed control at 330 ppm in assay [1] was ≥ 50%.
With `Cc1onc(-c2c(Cl)cccc2Cl)c1C(=O)NCCc1ncc(C(F)(F)F)cc1Cl` [Compound M-5], the pest or weed control at 330 ppm (with Alternaria brassicae; in assay [1]) was ≥ 50% each time.
Regarding `Cc1onc(-c2c(F)cccc2Cl)c1C(=O)NCCc1ncc(C(F)(F)F)cc1Cl` [Compound M-6], the pest or weed control at 330 ppm (in the assay on Alternaria brassicae; in assay [1]) was ≥ 50% in each case.
Turning to `CON=C(C)c1cnc(CCNC(=O)c2cccnc2Cl)c(Cl)c1` [Compound R-23], the pest or weed control at 330 ppm in the assay on Alternaria brassicae, in the assay on Botrytis cinerea and in the assay on Pyrenophora teres was ≥ 50% in each case.
Turning to `O=C(NCCc1ncc(Cl)cc1F)c1cccnc1Cl` [Compound R-24], the pest or weed control at 330 ppm in the assay on Alternaria brassicae and in the assay on Botrytis cinerea was ≥ 50% throughout.
